Experimental data: patent US20080260653A1, “Transdermal Delivery Systems and Transdermal Chelation Preparations” (priority 2004, published 2008)

Assay: Thermal stability and activity test of chelators (copper oxide removal test)
Type: physicochemical
Details: 143 degrees F. for 5 minutes
Procedure: A fresh copper surface is prepared. The surface is gently heat oxidized. Next, the chelation quality was determined. About 0.0001 grams per drop (or 0.0029 g/ml) chelator effectively removed all the oxide form 1 cm sq in two minutes at a temperature of 98-99 degrees F. Then, the solution was diluted at 10% intervals to determine the point where it would not remove the oxide. There was a step wise decrease in chelation effect across the Cu test sample plate. A standard of chelation was graphed, see FIGS. 1 and 2.
A similar test is used for thermal stability and activity. […] Also, the identical test is used to determine batch activity. A crude field test is to put the chelator on a penny and heat to 98 degrees.

SMILES	inactive (loss of chelator activity on heating)
O=S(=O)([O-])CC(S)CS.[Na+] (centres unmarked) [DMPS, 2,3-dimercaptopropanesulphonate sodium]	100%
O=C(O)CN(CCN(CC(=O)O)CC(=O)O)CC(=O)O [EDTA, ethylenediamine-N,N,N′,N′-tetraacetic acid]	100%
